Values of other authors, collected in US20240041893A1, “An Extended-Release Pharmaceutical Formulation of Viloxazine And Process For Preparation Thereof” (Innovate Therapeutics LLC, priority 2023, published 2024).

Test system: norepinephrine reuptake

CCOc1ccccc1OC[C@@H]1CNCCO1 [(S)-(−)-isomer]
pharmacological activity relative to the (R)-(+)-isomer: five times
